How the values were obtained:
KRas G13D = biological target: T1, KRas G13D (Homo sapiens, UniProt P01116, G13D); experiment: KRas binding assay (TR-FRET displacement);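 also: One-hour room temperature incubation before TR-FRET reading, IC50 from a four-parameter curve fit to percent-of-control data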
T1 construct: Biotinylated KRas (corresponding to amino acids 1-169, produced at Accelegan Inc.); biotin (biotinylated); purchased Accelegan Inc
Description: (§1) The ability of a compound to bind to KRas was measured using a TR-FRET displacement assay. […] After a 60-minute incubation at room temperature, the reaction was measured using a BMG LABTECH CLARIO star Plus via TR-FRET. […] The POC values were fit to a 4-parameter IC50 equation and the IC50 value reported.

KRas Q61H = biological target: T2, KRas Q61H (Homo sapiens, UniProt P01116, Q61H); experiment: KRas binding assay (TR-FRET displacement);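 also: TR-FRET signal read after one hour at room temperature, IC50 derived by four-parameter fitting of percent-of-control values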
T2 construct: Biotinylated KRas (corresponding to amino acids 1-169, produced at Accelegan Inc.); biotin (biotinylated); purchased Accelegan Inc
T2 sequence (P01116 1-169 isoform P01116-2 Q61H): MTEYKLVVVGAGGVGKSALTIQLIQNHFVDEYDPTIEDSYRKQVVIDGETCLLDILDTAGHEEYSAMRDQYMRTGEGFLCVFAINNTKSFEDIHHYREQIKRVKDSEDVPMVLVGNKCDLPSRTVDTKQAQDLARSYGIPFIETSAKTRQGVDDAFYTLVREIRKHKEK
Description: as §1

KRas G12D = KRas G12D (Homo sapiens, UniProt P01116, G12D); experiment: biochemical;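 also: TR-FRET displacement binding assay on KRas, read after a one-hour incubation at room temperature, IC50 fitted from percent-of-control values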
Chain of KRas G12D (P01116 1-169 isoform P01116-2 G12D): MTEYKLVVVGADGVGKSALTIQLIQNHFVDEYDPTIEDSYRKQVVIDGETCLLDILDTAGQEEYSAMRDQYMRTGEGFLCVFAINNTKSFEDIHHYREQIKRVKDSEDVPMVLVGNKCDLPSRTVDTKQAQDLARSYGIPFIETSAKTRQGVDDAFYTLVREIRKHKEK
Description: as §1

KRas G12V = KRas G12V (Homo sapiens, UniProt P01116, G12V); experiment: biochemical;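 also: KRas binding measured by TR-FRET displacement at room temperature, IC50 fitted from percent of control values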
Chain of KRas G12V (P01116 1-169 isoform P01116-2 G12V): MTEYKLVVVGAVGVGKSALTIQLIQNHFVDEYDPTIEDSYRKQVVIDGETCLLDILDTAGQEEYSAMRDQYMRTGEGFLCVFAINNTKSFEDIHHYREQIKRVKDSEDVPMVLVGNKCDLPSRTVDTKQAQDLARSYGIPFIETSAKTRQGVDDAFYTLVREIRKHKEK
Description: as §1

KRas G12R = KRas G12R (Homo sapiens, UniProt P01116, G12R); experiment: biochemical;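 also: TR-FRET displacement assay of compound binding to KRas, read after one hour at room temperature, potency from a four-parameter fit of percent-of-control values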
Chain of KRas G12R (P01116 1-169 isoform P01116-2 G12R): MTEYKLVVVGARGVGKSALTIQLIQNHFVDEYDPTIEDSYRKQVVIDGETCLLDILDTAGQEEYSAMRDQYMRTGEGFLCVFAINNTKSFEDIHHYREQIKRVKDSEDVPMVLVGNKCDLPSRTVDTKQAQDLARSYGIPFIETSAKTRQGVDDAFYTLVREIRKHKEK
Description: as §1

KRas G12A = KRas G12A (Homo sapiens, UniProt P01116, G12A); experiment: biochemical;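 also: binding to KRas measured by TR-FRET displacement after one hour at room temperature, IC50 from a four-parameter fit of percent-of-control values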
Chain of KRas G12A (P01116 1-169 isoform P01116-2 G12A): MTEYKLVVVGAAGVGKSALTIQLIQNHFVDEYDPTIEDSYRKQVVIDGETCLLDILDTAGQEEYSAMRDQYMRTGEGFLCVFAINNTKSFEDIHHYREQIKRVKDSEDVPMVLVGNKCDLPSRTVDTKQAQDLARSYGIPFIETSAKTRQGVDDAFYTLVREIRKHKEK
Description: as §1

KRas G12S = KRas G12S (Homo sapiens, UniProt P01116, G12S); experiment: biochemical;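 also: TR-FRET displacement binding to KRas, read after one hour incubation at room temperature, IC50 from four-parameter fit of percent of control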
Chain of KRas G12S (P01116 1-169 isoform P01116-2 G12S): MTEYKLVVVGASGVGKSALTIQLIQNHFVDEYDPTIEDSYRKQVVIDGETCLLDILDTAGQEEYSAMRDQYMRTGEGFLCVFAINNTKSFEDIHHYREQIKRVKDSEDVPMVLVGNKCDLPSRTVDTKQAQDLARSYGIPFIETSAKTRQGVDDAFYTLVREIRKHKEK
Description: as §1

KRas G12C = KRas G12C (Homo sapiens, UniProt P01116, G12C); experiment: biochemical;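 also: binding to KRas assessed by TR-FRET displacement after one hour incubation at room temperature, potency fitted from percent-of-control values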
Chain of KRas G12C (P01116 1-169 isoform P01116-2 G12C): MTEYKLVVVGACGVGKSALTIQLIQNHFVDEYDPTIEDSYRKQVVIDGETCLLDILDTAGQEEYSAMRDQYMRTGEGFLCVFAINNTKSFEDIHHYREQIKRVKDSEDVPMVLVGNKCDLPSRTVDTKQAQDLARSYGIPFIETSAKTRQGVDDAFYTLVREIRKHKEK
Description: as §1

KRas WT = KRas WT (Homo sapiens, UniProt P01116); experiment: biochemical;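 also: binding to KRas read as TR-FRET displacement after a one-hour room-temperature incubation, IC50 derived from percent-of-control values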
Chain of KRas WT (P01116 1-169 isoform P01116-2): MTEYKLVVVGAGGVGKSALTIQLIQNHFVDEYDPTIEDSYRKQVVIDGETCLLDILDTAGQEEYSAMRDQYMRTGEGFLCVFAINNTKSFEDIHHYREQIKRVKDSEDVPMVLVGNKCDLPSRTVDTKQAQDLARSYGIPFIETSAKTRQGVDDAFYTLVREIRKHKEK
Description: as §1

T1 sequence (P01116 1-169 isoform P01116-2 G13D): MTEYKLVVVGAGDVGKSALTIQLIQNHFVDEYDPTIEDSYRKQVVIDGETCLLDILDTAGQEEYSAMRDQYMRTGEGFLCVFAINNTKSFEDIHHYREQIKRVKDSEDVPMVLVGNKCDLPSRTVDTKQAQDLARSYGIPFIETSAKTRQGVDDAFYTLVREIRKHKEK

Row | SMILES | IC50 (KRas G13D) [nM] | IC50 (KRas Q61H) [nM] | IC50 (KRas G12D) [µM] | IC50 (KRas G12V) [µM] | IC50 (KRas G12R) [µM] | IC50 (KRas G12A) [µM] | IC50 (KRas G12S) [µM] | IC50 (KRas G12C) [µM] | IC50 (KRas WT) [µM]
1 | O=C1NC2(CCN(c3nc(OCC45CCCN4CCC5)nc4c(F)c(-c5cccc6cccc(F)c56)ncc34)CC2)CO1 [Example 224, 8-(8-fluoro-7-(8-fluoronaphthalen-1-yl)-2-((tetrahydro-1H-pyrrolizin-7a(5H)-yl)methoxy)pyrido[4,3-d]pyrimidin-4-yl)-3-oxa-1,8-diazaspiro[4.5]decan-2-one] | 4830 | 9670 | 64.8 | 8.48 | 4.02 | 8.45 | 7.11 | 11.7 | 6.28
2 | NC(=O)CCNc1nc(OCC23CCCN2CCC3)nc2c(F)c(-c3cccc4cccc(F)c34)ncc12 [Example 225, 3-((8-fluoro-7-(8-fluoronaphthalen-1-yl)-2-((hexahydro-1H-pyrrolizin-7a-yl)methoxy)pyrido[4,3-d]pyrimidin-4-yl)amino)propanamide] | 23500 | 26100 | 21.7 | 6.24 | 9.39 | 14.9 | 9.9 | 8.12 | 16.6
3 | O=C1NC(=O)C2CN(c3nc(OCC45CCCN4CCC5)nc4c(F)c(-c5cccc6cccc(F)c56)ncc34)CC12 (stereo not drawn) [Example 228, 5-(8-fluoro-7-(8-fluoronaphthalen-1-yl)-2-((hexahydro-1H-pyrrolizin-7a-yl)methoxy)pyrido[4,3-d]pyrimidin-4-yl)tetrahydropyrrolo[3,4-c]pyrrole-1,3(2H,3aH)-dione] | 465 | 822 | 0.147 | 0.148 | 0.224 | 1.21 | 0.202 | 1.02 | 2.7
4 | O=c1[nH][nH]cc1CNc1nc(OCC23CCCN2CCC3)nc2c(F)c(-c3cccc4cccc(F)c34)ncc12 [Example 230, 4-(((8-fluoro-7-(8-fluoronaphthalen-1-yl)-2-((hexahydro-1H-pyrrolizin-7a-yl)methoxy)pyrido[4,3-d]pyrimidin-4-yl)amino)methyl)-1H-pyrazol-3(2H)-one] | 35500 | 23300 | 38.8 | 7.99 | 9.85 | 11.3 | 19.7 | 10.6 | 28.4
5 | O=c1cc(CNc2nc(OCC34CCCN3CCC4)nc3c(F)c(-c4cccc5cccc(F)c45)ncc23)[nH][nH]1 [Example 231, 5-(((8-fluoro-7-(8-fluoronaphthalen-1-yl)-2-((hexahydro-1H-pyrrolizin-7a-yl)methoxy)pyrido[4,3-d]pyrimidin-4-yl)amino)methyl)-1H-pyrazol-3(2H)-one] | 61500 | 62300 | 97.9 | 24.6 | 8.68 | 52.1 | 31.6 | 29.6 | 49.4
6 | Fc1c(-c2cccc3cccc(F)c23)ncc2c(N3CCCC4(CCC4)C3)nc(OCC34CCCN3CCC4)nc12 [Example 232, 8-fluoro-7-(8-fluoronaphthalen-1-yl)-2-((hexahydro-1H-pyrrolizin-7a-yl)methoxy)-4-(6-azaspiro[3.5]nonan-6-yl)pyrido[4,3-d]pyrimidine] | 18000 | 25900 | 11.9 | 7.78 | 9.99 | 17.3 | 19.4 | 13.6 | 19.2
7 | OC1CCC12CCCN(c1nc(OCC34CCCN3CCC4)nc3c(F)c(-c4cccc5cccc(F)c45)ncc13)C2 (stereo not drawn) [Example 233, 6-(8-fluoro-7-(8-fluoronaphthalen-1-yl)-2-((tetrahydro-1H-pyrrolizin-7a(5H)-yl)methoxy)pyrido[4,3-d]pyrimidin-4-yl)-6-azaspiro[3.5]nonan-1-ol] | 7380 | 5350 | 6.7 | 4.64 | 5.56 | 2.65 | 7.45 | 6.15 | 4.3
8 | Fc1c(-c2cccc3cccc(F)c23)ncc2c(N3CCCC4(CC(F)C4)C3)nc(OCC34CCCN3CCC4)nc12 (stereo not drawn) [Example 234, 8-fluoro-4-(2-fluoro-6-azaspiro[3.5]nonan-6-yl)-7-(8-fluoronaphthalen-1-yl)-2-((hexahydro-1H-pyrrolizin-7a-yl)methoxy)pyrido[4,3-d]pyrimidine] | 1980 | 2590 | 2.02 | 1.6 | 1.85 | 2.3 | 1.76 | 1.62 | 2.64

Source: patent US12398154B2, “Azaquinazoline pan-KRas inhibitors” (Mirati Therapeutics, Inc., priority 2020, dated 2025)
